Where “and” joins values, the source holds several entries; their conditions need not be identical. Equal entries are not always repeated. Where two headings read alike, the source gives them in different places.
Columns and labels:
[1] = Two-photon absorption cross section; type: physicochemical; settings: dichloromethane
Protocol: The two-photon absorption cross section spectra of the sample was determined upon direction comparison to Rhodamine B. The sample was irradiated with an OpoletteTM 355II (pulse width ≤ 100 fs, 80 MHz repetition rate, Spectra Physics Inc.) laser. The experimental excitation and detection conditions were conducted with negligible reabsorption processes, which could affect two-photon absorption measurements. The quadratic dependence of the two-photon induced luminescence intensity on the excitation power was verified at an excitation wavelength of 800 nm. The two-photon absorption cross section was calculated using the following equation:1 σ2,sample=σ2,reference×Φreference×creference×Isample×nsample/Φsample×csample×Ireference×nreference,
σ2 = two-photon cross section, Φ = luminescence quantum yield, c = concentration, I = integrated luminescence intensity, n = refractive index

[2] = Emission and luminescence quantum yield; type: physicochemical; settings: acetonitrile
Protocol: The absorption spectra of the sample was measured with a SpectraMax M2 Spectrometer (Molecular Devices). For the measurements of the emission, the sample was irradiated at 355 nm with a NT342B Nd-YAG pumped optical parametric oscillator (Ekspla). The emission was focused at right angle to the excitation pathway and directed to a Princeton Instruments Acton SP-2300i monochromator. The signal was detected with a XPI-Max 4 CCD camera (Princeton Instruments).
The sample was prepared in an acetonitrile solution with an absorption of 0.1 at 355 nm. The sample was irradiated at 355 nm with a NT342B Nd-YAG pumped optical parametric oscillator (Ekspla). The emission was focused at right angle to the excitation pathway and directed to a Princeton Instruments Acton SP-2300i monochromator. The signal was detected with a XPI-Max 4 CCD camera (Princeton Instruments). The luminescence quantum yields were determined by comparison with the reference [Ru(2,2′-bipyridine)3]Cl2 in acetonitrile (Φem = 5.9%)[58] applying the following formula:2 Φem,sample=Φem,reference×Freference/Fsample×Isample/Ireference×nsample/nreference^2, 3 F=1−10^-A. Φem = luminescence quantum yield, F = fraction of light absorbed, I = integrated emission intensities, n = refractive index, A = absorbance of the sample at irradiation wavelength.

Excited state lifetime = type: physicochemical; settings: for τ air, excited state lifetime: air saturated acetonitrile; for τ degassed, excited state lifetime: degassed acetonitrile
Protocol: The sample was prepared in an air saturated as well as a degassed acetonitrile solution with an absorption of 0.2 at 355 nm. The sample was irradiated at 355 nm with a NT342B Nd-YAG pumped optical parametric oscillator (Ekspla). The emission was focused at right angle to the excitation pathway and directed to a Princeton Instruments Acton SP-2300i monochromator. The signal was detected with a R928 photomultiplier tube (Hamamatsu).

[3] = Singlet oxygen quantum yield, direct evaluation (1O2 phosphorescence); type: physicochemical
Protocol: Direct evaluation: the sample was prepared in an air-saturated acetonitrile or deuterated water solution with an absorption of 0.2 at 450 nm. The sample was irradiated at 450 nm with a mounted M450LP1 LED (Thorlabs), whose light was focused with aspheric condenser lenses. Using a T-Cube LED Driver (Thorlabs), the intensity of the irradiation was varied and monitored with an optical power and energy meter. The emission was focused at right angle to the excitation pathway and directed to a Princeton Instruments Acton SP-2300i monochromator. To cut off light at wavelengths shorter than 850 nm, a longpass glass filter was placed in front of the monochromator entrance slit. The signal was detected with an EO-817L IR-sensitive liquid-nitrogen cooled germanium diode detector (North Coast Scientific Corp.). The luminescence signal, centered at 1270 nm, was measured from 1100 to 1400 nm. The obtained data were analyzed upon plotting the integrated luminescence peaks against the percentage of the irradiation intensity. The slope of the linear regression was calculated and compared with the reference Rose Bengal (Φ = 76%)[59]. The absorption of the sample was corrected with an absorption correction factor. The singlet oxygen quantum yields were calculated using the following formula:4 Φsample=Φreference×Ssample/Sreference×Ireference/Isample, 5 I=I0×1−10^-A.
Φ = singlet oxygen quantum yield, S = slope of the linear regression of the plot of the areas of the singlet oxygen luminescence peaks against the irradiation intensity, I = absorption correction factor, I0 = light intensity of the irradiation source, and A = absorption of the sample at irradiation wavelength.

[4] = Photostability (absorption spectra upon irradiation); type: physicochemical; settings: 450 nm, 0 to 10 min (13.2 J cm^−2), air-saturated acetonitrile
Protocol: The sample was prepared in an air-saturated acetonitrile solution. Using a Atlas Photonics LUMOS BIO irradiator, the sample was constantly irradiated at 450 nm in time intervals from 0 to 10 min (13.2 J cm^−2). The absorption spectra from 350 to 700 nm was monitored with a SpectraMax M2 Microplate Reader (Molecular Devices) at each time interval. As positive and negative controls, respectively, [Ru(2,2′-bipyridine)3]Cl2 and Protoporphyrin IX were used.

[5] = tested on: human cervical carcinoma (HeLa) cells; assay: (Photo-)cytotoxicity on 2D cell monolayers, HeLa; type: cell-based; settings: for IC50: 1-3 as chloride salts; for PI (480 nm): dark vs 480 nm; for PI (540 nm): dark vs 540 nm
[6] = tested on: mouse colon carcinoma (CT-26) cells
Protocol: (§1) A total of 4 × 10^3 cells were seeded on 96-well plates and allowed to adhere overnight. The cells were treated with increasing concentrations of the sample diluted in cell media achieving a total volume of 200 μL. The cells were incubated with the sample for 8 h and, after this time, the medium refreshed. To study the phototoxic effect of the sample, the cells were exposed to 480 nm (spectral half-width: 20 nm, 10 min, 5.2 mW cm^−2, 3.1 J cm^−2) or 540 nm (spectral half-width: 30 nm, 40 min, 4.0 mW cm^−2, 9.5 J cm^−2) light using an Atlas Photonics LUMOS BIO irradiator. To study the dark cytotoxicity of the sample, the cells were not irradiated and the medium exchanged. The cells were grown for an additional 40 h at 37 °C. After this time, the medium was replaced with fresh medium containing resazurin with a final concentration of 0.2 mg mL^−1. The cells were incubated for 4 h and the amount of the fluorescent product resorufin determined (λex = 540 nm, λem = 590 nm) with a SpectraMax M2 Microplate Reader (Molecular Devices). The obtained data was analyzed with the GraphPad Prism software.

[7] = tested on: human glioblastoma astrocytoma (U373) cells;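 note: Resazurin-to-resorufin fluorescence viability readout, 8 h compound exposure then medium change, light dose 3.1 J cm^−2 at 480 nm or 9.5 J cm^−2 at 540 nm, analysed 40 h later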
Protocol: as §1

[8] = tested on: human glioblastoma astrocytoma (U373) cells; assay: (Photo-)cytotoxicity on 2D cell monolayers, U373; settings: for PI (480 nm): U373, dark vs 480 nm; for PI (540 nm): U373, dark vs 540 nm; for IC50: 1-3 as chloride salts;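 for all read-outs here: Resazurin-to-resorufin fluorescence viability readout, 8 h compound exposure then medium change, light dose 3.1 J cm^−2 at 480 nm or 9.5 J cm^−2 at 540 nm, analysed 40 h later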
Protocol: as §1

[9] = tested on: noncancerous retinal pigment epithelium (RPE-1) cells; assay: (Photo-)cytotoxicity on 2D cell monolayers, RPE-1; settings: for PI (480 nm): RPE-1, dark vs 480 nm; for PI (540 nm): RPE-1, dark vs 540 nm; for IC50: 1-3 as chloride salts
Protocol: as §1

[10] = tested on: mouse colon carcinoma (CT-26) cells; assay: (Photo-)cytotoxicity on 2D cell monolayers, CT-26; settings: for PI (480 nm): CT-26, dark vs 480 nm; for PI (540 nm): CT-26, dark vs 540 nm; for IC50: 1-3 as chloride salts
Protocol: as §1

[11] = 480 nm, read-out: IC50 480 nm (10 min, 3.1 J cm-2)
[12] = 540 nm, read-out: IC50 540 nm (40 min, 9.5 J cm-2)
[13] = read-out: IC50 480 nm (10 min, 3.1 J cm-2), U373, 480 nm
[14] = read-out: IC50 dark, U373, dark
[15] = read-out: IC50 540 nm (40 min, 9.5 J cm-2), RPE-1, 540 nm
[16] = read-out: IC50 dark, RPE-1, dark
[17] = read-out: IC50 540 nm (40 min, 9.5 J cm-2), CT-26, 540 nm
[18] = read-out: IC50 dark, CT-26, dark

SMILES	Φem, luminescence quantum yield [2]	λem, emission maximum [2]	τ air, excited state lifetime (Excited state lifetime)	τ degassed, excited state lifetime (Excited state lifetime)	Singlet oxygen quantum yield, Direct 450 nm CH3CN [3]	photostability (change of absorption spectra upon irradiation) [4]	IC50 [5, 11]	IC50 [5, 12]	PI (480 nm) [5]	PI (540 nm) [5]	IC50 ([5]; dark, read-out: IC50 dark)	IC50 [6]	IC50 [7]	PI (480 nm) [8]	PI (540 nm) [8]	IC50 [8, 13]	IC50 [8, 14]	PI (480 nm) [9]	PI (540 nm) [9]	IC50 [9, 15]	further results
CN(C)c1ccc(/C=C/c2ccnc(-c3cc(/C=C/c4ccc(N(C)C)cc4)ccn3)c2)cc1.F[P-](F)(F)(F)(F)F.F[P-](F)(F)(F)(F)F.[Ru+2].c1ccc(-c2ccccn2)nc1.c1ccc(-c2ccccn2)nc1 [compound 6, [Ru(2,2′-bipyridine)2((E,E′)-4,4′-Bis[p-(N,N-dimethylamino)styryl]-2,2′-bipyridine)][PF6]2]	0.5%	697 nm	54 ns	405 ns	46%	small changes in the absorption spectra	5.3 µM	5.8 µM	> 18.9	> 17.2	> 100 µM	2.4 µM	10.7 µM	> 12.0	> 9.3	8.3 µM	> 100 µM	> 13.7	> 12.3	8.1 µM	σ2, 2P absorption cross section [1]: 349 GM; IC50 [9, 16]: > 100 µM; PI (480 nm) [10]: > 41.7; PI (540 nm) [10]: > 32.3; IC50 [10, 17]: 3.1 µM; IC50 [10, 18]: > 100 µM
COc1ccc(/C=C/c2ccnc(-c3cc(/C=C/c4ccc(OC)cc4)ccn3)c2)cc1.F[P-](F)(F)(F)(F)F.F[P-](F)(F)(F)(F)F.[Ru+2].c1ccc(-c2ccccn2)nc1.c1ccc(-c2ccccn2)nc1 [compound 7, [Ru(2,2′-bipyridine)2((E,E′)-4,4′-Bis[p-methoxystyryl]-2,2′-bipyridine)][PF6]2]	2.8%	664 nm	96 ns	542 ns	75%	no significant differences in the absorption spectra	1.2 µM	1.5 µM	> 83.3	> 66.7	> 100 µM	0.7 ± 0.4 µM	13.5 µM	> 9.5	> 7.4	10.5 µM	> 100 µM	> 32.3	> 11.9	8.4 µM	IC50 [9, 16]: > 100 µM; PI (480 nm) [10]: > 143 and > 142.9; PI (540 nm) [10]: > 111.1; IC50 [10, 17]: 0.9 ± 0.3 µM; IC50 [10, 18]: > 100 µM
C(=C\c1ccnc(-c2cc(/C=C/c3ccccc3)ccn2)c1)/c1ccccc1.C(=C\c1ccnc(-c2cc(/C=C/c3ccccc3)ccn2)c1)/c1ccccc1.C(=C\c1ccnc(-c2cc(/C=C/c3ccccc3)ccn2)c1)/c1ccccc1.F[P-](F)(F)(F)(F)F.F[P-](F)(F)(F)(F)F.[Ru+2] [compound 1]	1.9%	677 nm	86 ns	385 ns	65%	no significant differences in the absorption spectra	29.5 µM	48.7 µM	> 3.4	> 2.1	> 100 µM	20.3 µM	83.1 µM	> 1.9	> 1.2	51.7 µM	> 100 µM	> 3.2	> 3.2	31.7 µM	σ2, 2P absorption cross section [1]: 147 GM; IC50 [9, 16]: > 100 µM; PI (480 nm) [10]: > 4.9; PI (540 nm) [10]: > 3.0; IC50 [10, 17]: 33.4 µM; IC50 [10, 18]: > 100 µM
